Read-outs that look alike come from different tables or passages of the source.
What was measured:
[1] = test system: patients with type 1 diabetes; experiment: Example 2 b): 6-month extension trial (12 months of treatment), insulin detemir vs NPH insulin, IAsp as meal related insulin; format: in vivo, human; conditions: for ANOVA of weight after 12 months of treatment, ITT, Mean (least square mean): IAsp as meal related insulin; for body weight at End of trial, Mean: End of trial (12 months)
Text: A 6-month extension of a multi-centre, open-label, asymmetrically randomised, parallel trial.
Patients who agreed to participate in the extension period continued treatment without interruption.
Following completion of the 6-month initial period, the extension period included 3 visits (0, 3 and 6 months after the start of the extension period).
The patients were advised to maintain their usual diet and daily activities.
All patients who completed the 6-month treatment period in the trial described under Section a) above and who were able and willing to participate in the extension period were included. Thus, the Section b) trial included 316 patients.

[2] = test system: patients with type 1 diabetes; experiment: Example 3: 6-month open-label parallel trial, once daily insulin detemir vs NPH insulin, basal/bolus regimen with human soluble insulin; format: in vivo; conditions: for ANOVA of weight after 6 months of treatment, ITT, Mean (least square mean): once daily basal, human soluble insulin at meals; for body weight at End of trial, Mean: End of trial (6 months)
Text: All patients were on a basal/bolus insulin regimen with human soluble insulin as meal-related insulin. […] The trial included a screening visit to assess patient eligibility and a randomisation visit (maximum 3 weeks after the screening visit) followed by a six-month treatment period. In order to achieve glycaemic control, the investigator had contact with the patients at least every other working day during the first two weeks of treatment or as long as necessary to achieve glycaemic control. A post-treatment follow-up visit was performed 2-6 days after the last visit.
The study included 750 type 1 diabetic patients aged 18 years or above and having a HbAtc≦12%. […] The patients were to have no major diabetic complications or other significant diseases.

[3] = test system: patients with type 1 diabetes; experiment: Example 6: 16-week three-group trial, insulin detemir at 12-hour intervals, insulin detemir morning and bedtime, NPH morning and bedtime, insulin aspart at meals; format: in vivo, human; conditions: for average body weight gained: Morn_Bed groups; for body weight at Baseline, Mean / body weight at End of trial, Mean: both detemir groups pooled; for body weight at End of trial, Mean: End of trial (16 weeks)
Method: A 16 week, multi-centre, multi-national, open, randomised three-group parallel study comparing administration of insulin detemir at 12-hour intervals, insulin detemir morning and bedtime and NPH morning and bedtime in patients with type 1 diabetes
All patients received insulin aspart at meals. The trial included a Screening Visit to assess patient's eligibility and a Randomisation Visit, followed by a treatment period 16 of weeks. A post-treatment follow-up Visit was carried out approximately 1 week after the last visit.
The study included 409 type 1 diabetic patients aged 18 or above and HbA1c≦12%. The patients had had diabetes >12 months and had been treated on a basal (twice daily)/bolus regimen ≧2 months using an intermediate/long-acting insulin as a basal insulin and fast-acting human insulin or insulin analogue as bolus insulin.

[4] = test system: adult patients with type 1 diabetes; experiment: Example 1 b): 6-month extension trial (12 months of treatment), insulin detemir vs NPH insulin, human soluble insulin as meal related insulin; conditions: for ANOVA of weight after 12 months of treatment, ITT, Mean (least square mean): human soluble insulin as meal related insulin; for body weight at End of trial, Mean: End of trial (12 months)
Text: (§1) All patients were on a basal (twice-daily)-bolus regimen with human soluble insulin as meal related insulin:
(§2) The analysis is based upon an ANOVA model with treatment and country as fixed effects and weight at baseline as covariate.

[5] = test system: patients with type 1 diabetes; experiment: Example 5: 16-week three arm trial, insulin detemir morning and pre-dinner, insulin detemir morning and bedtime, NPH insulin morning and bedtime, insulin aspart with meals; format: in vivo, human; conditions: for body weight at Baseline, Mean / body weight at End of trial, Mean: both detemir groups pooled; for body weight at End of trial, Mean: End of trial (16 weeks)
Method: All patients received insulin aspart (IAsp) with meals. The trial included a Screening Visit to assess patient eligibility and a Randomisation Visit (maximum 2 weeks after the Screening Visit). The following 16 week treatment period included 5 visits. In addition, patients were contacted every second day in the first two weeks (or longer if necessary) to ensure that optimal basal insulin dose was achieved fast and smoothly. A post-treatment telephone Follow-up was performed approximately one week after the last visit.
The study included 400 type 1 diabetic patients aged 18 or above with a BMI of ≦[…] and HbA1c<12%. The patients had had diabetes ≧12 months and had been treated on a basal/bolus regimen ≧2 months with a basal insulin requirement of ≧30% of the total daily insulin dose, and a total daily basal insulin dose below 100 IU. Patients were to have no major diabetic complications or other significant diseases.

[6] = test system: patients with type 1 diabetes; conditions: for ANOVA of weight after 6 months of treatment, ITT, Mean (least square mean): type 1 diabetes, human soluble insulin as bolus, baseline weight as covariate
Text: Material and Methods: A total of 460 patients with no clinically significant diseases or diabetic complications were exposed (287 men and 173 women).
as §2

[7] = test system: patients with type 2 diabetes; experiment: Example 4: 6-month open parallel trial, insulin detemir vs NPH insulin once or twice daily, basal/bolus regimen with NovoRapid; format: in vivo, human; conditions: for ANOVA of weight after 6 months of treatment, ITT, Mean (least square mean): NovoRapid with meals; for body weight at End of trial, Mean: End of trial (6 months)
Text: Multicentre, open, randomised, parallel trial comprising a screening visit and a randomisation visit followed by a six month treatment period of basal/bolus therapy with either insulin detemir or NPH once or twice daily as needed. The patients received NovoRapid® with meals as bolus insulin throughout the trial.
The study included 506 type 2 diabetic patients aged 35 years or above with type 2 diabetes for ≧12 months treated with insulin or insulin analogues for at least 2 months, with a HbA1c≦12.0%, a basal insulin dose ≧30% of the total daily insulin dose and no other clinically relevant diseases were included in the trial.

[8] = test system: patients with type 1 diabetes; conditions: for ANOVA of weight after 6 months of treatment, ITT, Mean (least square mean): insulin aspart as bolus; for HbA, levels: After 6 months; for plasma glucose at 07:00: nightly plasma glucose profile, p<0.05
Text: One of the secondary objectives of the study was to compare the regimens in terms of the safety profile, including the body weight of the patients.
The analysis is based upon an ANOVA model with treatment as fixed effect and weight at baseline as covariate.

[9] = test system: adult patients with type 1 diabetes; conditions: in vivo
Text: as §1, §2

[10] = 16 weeks, Morn_Bed (morning and bedtime)
[11] = 12 months, difference between treatments
[12] = 12 months, not statistically significant
[13] = 6 months, difference between treatments

NPH insulin: comparator basal insulin in the trials [reference compound]
average body weight gained during the trial ([1]; 12 months): 1.2 kg | ANOVA of weight after 12 months of treatment, ITT, Mean (least square mean) ([1]; 12 months): 72.8 kg | body weight at Baseline, Mean [1]: 71.5 kg | body weight at End of trial, Mean [1]: 72.7 kg | average body weight gained during the trial ([2]; 6 months): 0.4 kg | ANOVA of weight after 6 months of treatment, ITT, Mean (least square mean) ([2]; 6 months): 76.7 kg | body weight at Baseline, Mean [2]: 76.1 kg | body weight at End of trial, Mean [2]: 76.5 kg | ANOVA of Weight after 16 Weeks of Treatment, Adjusted for Change in HbA1c, ITT, Mean (least square mean) [3, 10]: 76.04 kg | average body weight gained ([3]; 16 weeks): 0.7 kg | body weight at Baseline, Mean [3]: 74.5 kg | body weight at End of trial, Mean [3]: 75.3 kg | ANOVA of weight after 12 months of treatment, ITT, Mean (least square mean) ([4]; 12 months): 76.9 kg | weight gain ([4]; 12 months, statistically significant): 1.4 kg | body weight at Baseline, Mean [4]: 75.8 kg | body weight at End of trial, Mean [4]: 77.2 kg | proportion of patients with serious adverse events ([4]; during 12 months): 13.4% | ANOVA of Weight after 16 Weeks of Treatment, Adjusted for Change in HbA1c, ITT, Mean (least square mean) [5, 10]: 76.40 kg | body weight at Baseline, Mean [5]: 74.5 kg | body weight at End of trial, Mean [5]: 75.3 kg | average body weight gained during the trial ([6]; 6 months): 0.7 kg | ANOVA of weight after 6 months of treatment, ITT, Mean (least square mean) ([6]; 6 months): 76.5 kg | increase of mean body weight ([7]; 6 months): 1.3 kg | ANOVA of weight after 6 months of treatment, ITT, Mean (least square mean) ([7]; 6 months): 88.6 kg | body weight at Baseline, Mean [7]: 89.7 kg | body weight at End of trial, Mean [7]: 91.0 kg | ANOVA of weight after 6 months of treatment, ITT, Mean (least square mean) ([8]; 6 months): 71.8 kg | HbA, levels [8]: 7.64% | plasma glucose at 07:00 [8]: 9.5 mM/L | average body weight gained ([8]; over 6 months): 0.7 kg

N^εB29-tetradecanoyl des(B30) human insulin [Insulin detemir]
ANOVA of weight after 12 months of treatment, ITT, Mean (least square mean) ([1]; 12 months): 71.5 kg | ANOVA of weight after 12 months, insulin detemir − NPH, Mean [1, 11]: -1.34 kg | average body weight lost during the trial [1, 12]: 0.1 kg | body weight at Baseline, Mean [1]: 71.4 kg | body weight at End of trial, Mean [1]: 71.3 kg | difference in body weight between the groups ([1]; after 12 months, statistically significant): 1.3 kg | average body weight lost during the trial ([2]; 6 months): 0.2 kg | ANOVA of weight after 6 months, insulin detemir − NPH, Mean [2, 13]: -0.52 kg | ANOVA of weight after 6 months of treatment, ITT, Mean (least square mean) ([2]; 6 months): 76.2 kg | body weight at Baseline, Mean [2]: 76.5 kg | body weight at End of trial, Mean [2]: 76.3 kg | Weight, Pairwise Comparison, Mean Diff. Detemir Morn_Bed - NPH Morn_Bed ([3]; 16 weeks): -0.6 kg | ANOVA of Weight after 16 Weeks of Treatment, Adjusted for Change in HbA1c, ITT, Mean (least square mean) ([3]; 16 weeks, 12 h_interval): 75.20 kg | average change of body weight ([3]; 16 weeks, 12 h_interval group): maintained their weight | ANOVA of Weight after 16 Weeks of Treatment, Adjusted for Change in HbA1c, ITT, Mean (least square mean) [3, 10]: 75.41 kg | average body weight gained ([3]; 16 weeks): 0.2 kg | Weight, Pairwise Comparison, Mean Diff. Detemir 12 h_interval - NPH Morn_Bed ([3]; 16 weeks, first comparison, p=0.0061): -0.8 kg | Weight, Pairwise Comparison, Mean Diff. Detemir 12 h_interval - NPH Morn_Bed ([3]; 16 weeks, third comparison as printed, p=0.4772): -0.2 kg | body weight at Baseline, Mean [3]: 76.3 kg | body weight at End of trial, Mean [3]: 76.2 kg | proportion of patients with serious adverse events [9]: 9.1% | risk of hypoglycemia during the night, relative risk (detemir/NPH) [9]: 0.71 | ANOVA of weight after 12 months, insulin detemir − NPH, Mean [4, 11]: -1.66 kg | ANOVA of weight after 12 months of treatment, ITT, Mean (least square mean) ([4]; 12 months): 75.2 kg | weight loss [4, 12]: 0.3 kg | body weight at Baseline, Mean [4]: 76.6 kg | body weight at End of trial, Mean [4]: 76.3 kg | HbA1c ([4]; after 12 months of treatment): 7.9% | difference in body weight between groups ([4]; after 12 months of treatment, p=0.002): 1.7 kg | Weight, Pairwise Comparison, Mean Difference Detemir Morn_Bed - NPH Morn_Bed ([5]; 16 weeks): -0.6 kg | Weight, Pairwise Comparison, Mean Difference Detemir Morn_Dinner - Detemir Morn_Bed ([5]; 16 weeks): -0.7 kg | Weight, Pairwise Comparison, Mean Difference Detemir Morn_Dinner - NPH Morn_Bed ([5]; 16 weeks): -1.3 kg | ANOVA of Weight after 16 Weeks of Treatment, Adjusted for Change in HbA1c, ITT, Mean (least square mean) [5, 10]: 75.81 kg | ANOVA of Weight after 16 Weeks of Treatment, Adjusted for Change in HbA1c, ITT, Mean (least square mean) ([5]; 16 weeks, Morn_Dinner (morning and pre-dinner)): 75.12 kg | Weight in both insulin detemir groups compared with NPH insulin ([5]; 16 weeks, statistically significant): lower | body weight at Baseline, Mean [5]: 76.3 kg | body weight at End of trial, Mean [5]: 76.2 kg | 9-point blood glucose profiles, insulin detemir and NPH ([6]; 6 months): comparable | average body weight lost during the trial ([6]; 6 months): 0.5 kg | ANOVA of weight after 6 months of treatment, ITT, Mean (least square mean) ([6]; 6 months): 75.4 kg | HbA1c absolute mean difference between treatments (insulin detemir-NPH) ([6]; after 6 months, 95% CI [−0.05, 0.22]): 0.08 % point | number of patients with hypoglycaemic episodes between the two treatments ([6]; in vivo): not statistically significantly different | safety profiles between the two treatments ([6]; in vivo): comparable | intra-patient variation in fasting blood glucose (FBG) vs NPH ([6]; not statistically significant, p=0.06): tendency towards lower intra-patient variation | difference in FPG between treatments ([6]; p=0.78): No statistically significant difference | increase of mean body weight ([7]; 6 months): 0.4 kg | ANOVA of weight after 6 months of treatment, ITT, Mean (least square mean) ([7]; 6 months): 87.8 kg | ANOVA of weight after 6 months, insulin detemir − NPH, Mean [7, 13]: -0.79 kg | body weight at Baseline, Mean [7]: 85.4 kg | body weight at End of trial, Mean [7]: 85.8 kg | ANOVA of weight after 6 months of treatment, ITT, Mean (least square mean) ([8]; 6 months): 70.9 kg | Fasting plasma glucose difference, insulin detemir vs NPH insulin ([8]; 6 months, not statistically significant, p=0.097): -0.76 mM | difference in mean body weight between the groups ([8]; 6 months, statistically significant): 1 kg | HbA, levels [8]: 7.60% | Body weight (baseline adjusted) vs NPH insulin ([8]; at the end of the trial, p<0.001): significantly lower | general safety profile between the two treatments ([8]; in vivo): similar | plasma glucose at 07:00 [8]: 7.6 mM/L | average body weight lost ([8]; over 6 months, not statistically significant): 0.2 kg | shapes of the nightly plasma glucose profiles vs NPH insulin ([8]; p=0.05): smoother and more stable

— patent US20030224973A1, “Minimising body gain in insulin treatment” (priority 2002, published 2003)
